System: 598228-144-R-J1-PDC complex spheroids, viability
Test: Anticancer human tumor 598228-144-R-J1-PDC patient-derived serous endometrial adenocarcinoma cell line growth inhibition [CLK]
Conditions: for IC50: curve of first compound; for viability, T/C: stronger effect = lower value
Method in brief: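 Patient-derived tumor cells grown as complex spheroids with HUVEC endothelial cells and mesenchymal stem cells, treated with drug combinations. Concentrations descend in half-log steps from near clinical Cmax, or from 10 microM if Cmax unknown.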

[1] = second compound 0.0316 µM, first compound 0.0316 µM
[2] = second compound 0.0316 µM, first compound 0.1 µM
[3] = second compound 0.0316 µM, first compound 0.316 µM
[4] = second compound 0.0316 µM, first compound 1 µM
[5] = second compound 0.0316 µM, first compound 3.16 µM
[6] = second compound 0.0316 µM, first compound 10 µM
[7] = second compound 0.1 µM, first compound 0.0316 µM
[8] = second compound 0.1 µM, first compound 0.1 µM
[9] = second compound 0.1 µM, first compound 0.316 µM
[10] = second compound 0.1 µM, first compound 1 µM
[11] = second compound 0.1 µM, first compound 3.16 µM
[12] = second compound 0.1 µM, first compound 10 µM
[13] = second compound 0.316 µM, first compound 0.0316 µM
[14] = second compound 0.316 µM, first compound 0.1 µM
[15] = second compound 0.316 µM, first compound 0.316 µM
[16] = second compound 0.316 µM, first compound 1 µM
[17] = second compound 0.316 µM, first compound 3.16 µM
[18] = second compound 0.316 µM, first compound 10 µM
[19] = second compound 1 µM, first compound 0.0316 µM
[20] = second compound 1 µM, first compound 0.1 µM
[21] = second compound 1 µM, first compound 0.316 µM
[22] = second compound 1 µM, first compound 1 µM
[23] = second compound 1 µM, first compound 3.16 µM
[24] = second compound 1 µM, first compound 10 µM
[25] = second compound 3.16 µM, first compound 0.0316 µM
[26] = second compound 3.16 µM, first compound 0.1 µM
[27] = second compound 3.16 µM, first compound 0.316 µM
[28] = second compound 3.16 µM, first compound 1 µM
[29] = second compound 3.16 µM, first compound 3.16 µM
[30] = second compound 3.16 µM, first compound 10 µM
[31] = second compound 10 µM, first compound 0.0316 µM
[32] = second compound 10 µM, first compound 0.1 µM
[33] = second compound 10 µM, first compound 0.316 µM
[34] = second compound 10 µM, first compound 1 µM
[35] = second compound 10 µM, first compound 3.16 µM
[36] = second compound 10 µM, first compound 10 µM
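Further: spheroids exposed to compounds for seven days before readout.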
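Wherever viability, T/C is given: 100% = DMSO vehicle control wells.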

CC(=O)O[C@H]1C(=O)[C@@]2(C)[C@H]([C@H](OC(=O)c3ccccc3)[C@]3(O)C[C@H](OC(=O)[C@H](O)[C@@H](NC(=O)c4ccccc4)c4ccccc4)C(C)=C1C3(C)C)[C@]1(OC(C)=O)CO[C@@H]1C[C@@H]2O + CNC(=O)c1ccc(Nc2nc(OC3CCCC3)c3c(-c4ccc5nc(C)oc5c4)c[nH]c3n2)c(OC)c1
IC50 (second compound 0.0316 µM): < 31.6 nM | IC50 (second compound 0.1 µM): > 10000 nM | IC50 (second compound 0.316 µM): > 10000 nM | IC50 (second compound 1 µM): > 10000 nM | IC50 (second compound 3.16 µM): > 10000 nM | IC50 (second compound 10 µM): > 10000 nM | viability, T/C [1]: 45.6% | viability, T/C [2]: 46.2% | viability, T/C [3]: 40.3% | viability, T/C [4]: 40.9% | viability, T/C [5]: 45.2% | viability, T/C [6]: 50.6% | viability, T/C [7]: 70% | viability, T/C [8]: 58% | viability, T/C [9]: 64.8% | viability, T/C [10]: 66.2% | viability, T/C [11]: 57.4% | viability, T/C [12]: 67% | viability, T/C [13]: 121% | viability, T/C [14]: 123% | viability, T/C [15]: 94.9% | viability, T/C [16]: 108% | viability, T/C [17]: 106% | viability, T/C [18]: 84.1% | viability, T/C [19]: 120% | viability, T/C [20]: 102% | viability, T/C [21]: 92.5% | viability, T/C [22]: 125% | viability, T/C [23]: 109% | viability, T/C [24]: 86.8% | viability, T/C [25]: 102% | viability, T/C [26]: 96.2% | viability, T/C [27]: 103% | viability, T/C [28]: 108% | viability, T/C [29]: 105% | viability, T/C [30]: 92.1% | viability, T/C [31]: 101% | viability, T/C [32]: 97% | viability, T/C [33]: 109% | viability, T/C [34]: 103% | viability, T/C [35]: 90.4% | viability, T/C [36]: 107%

COc1cccc2c1C(=O)c1c(O)c3c(c(O)c1C2=O)CC(O)(C(=O)CO)CC3OC1CC(N)C(O)C(C)O1 (centres undefined) + CNC(=O)c1ccc(Nc2nc(OC3CCCC3)c3c(-c4ccc5nc(C)oc5c4)c[nH]c3n2)c(OC)c1
IC50 (second compound 0.0316 µM): 247 nM | IC50 (second compound 0.1 µM): 254 nM | IC50 (second compound 0.316 µM): 227 nM | IC50 (second compound 1 µM): 162 nM | IC50 (second compound 3.16 µM): 101 nM | IC50 (second compound 10 µM): 105 nM | viability, T/C [1]: 102% | viability, T/C [2]: 83.6% | viability, T/C [3]: 40.4% | viability, T/C [4]: 11.3% | viability, T/C [5]: 0.76% | viability, T/C [6]: 0.83% | viability, T/C [7]: 122% | viability, T/C [8]: 106% | viability, T/C [9]: 36.5% | viability, T/C [10]: 7.7% | viability, T/C [11]: 0.47% | viability, T/C [12]: 1.08% | viability, T/C [13]: 123% | viability, T/C [14]: 128% | viability, T/C [15]: 19.1% | viability, T/C [16]: 4.16% | viability, T/C [17]: 0.73% | viability, T/C [18]: 4.66% | viability, T/C [19]: 121% | viability, T/C [20]: 76.1% | viability, T/C [21]: 14.2% | viability, T/C [22]: 1.56% | viability, T/C [23]: 0.81% | viability, T/C [24]: 0.82% | viability, T/C [25]: 110% | viability, T/C [26]: 49.8% | viability, T/C [27]: 17.1% | viability, T/C [28]: 1.2% | viability, T/C [29]: 2.45% | viability, T/C [30]: 1.09% | viability, T/C [31]: 103% | viability, T/C [32]: 51.7% | viability, T/C [33]: 11.6% | viability, T/C [34]: 1.39% | viability, T/C [35]: 1.63% | viability, T/C [36]: 2.68%

Source: PubChem BioAssay AID2060614 (Molecular Pharmacology Branch, DTP, NCI, 2025)
